Measurements taken from US20250122191A1, “COMPOUNDS AS BCL-2 INHIBITORS” (Fochon Biosciences, Ltd, priority 2021, published 2025).

How the values were obtained:
RS4;11-BCL-2 F104L cells = test: Cell proliferation assay (MTS), RS4;11-BCL-2 F104L engineered cells; type: cell-based; conditions: Homo sapiens, 120 h, read-out: RS4, 11 BCL2-F104L IC50
Source text: MTS testing kit was purchased from Promega (Madison, WI, USA). The RPMI-1640, Fetal bovine serum and Penicillin-Streptomycin were purchased from BI (Biological Industries, Beit Haemek, Israel). Puromycin was purchased from Beyotime (shanghai, China). Dimethyl sulfoxide (DMSO) was purchased from Sigma (St. Louis., MO, USA). RS4;11-BCL-2 G101V (Cobioer Lot. #: CBD2021063013P4), RS4;11-BCL-2 D103E (Cobioer Lot. #: CBD2021063013P4), RS4;11-BCL-2 D103Y (Cobioer Lot. #: CBD2022012101P4) and RS4;11-BCL-2 F104L (Cobioer Lot. #: CBD2021063014P4) cells were cultured in RPMI1640 supplemented with 1 ug/mL puromycin, 100 U/mL Penicillin-Streptomycin and 10% FBS.
To investigate whether a compound is able to inhibit the activity of BCL-2 mutation in cells, a mechanism-based assay using engineered cell lines stably overexpressing BCL-2 mutation (RS4;11-BCL-2 G101V, RS4;11-BCL-2 D103E, RS4;11-BCL-2 D103Y, and RS4;11-BCL-2 F104L) was developed. In this assay, the inhibition of BCL-2 mutation was reflected by the inhibition of cell proliferation of engineered RS4;11 cells. Cells were plated into 96-well plates at optimized cell density (RS4;11-BCL-2 G101V: 5000 cells/well; RS4;11-BCL-2 D103E: 7500 cells/well; RS4;11-BCL-2 D103Y: 7500 cells/well; RS4;11-BCL-2 F104L: 5000 cells/well). Plates were incubated at 37° C., with 5% CO2 for 4 h (RS4;11-BCL-2 G101V, RS4;11-BCL-2 F104L) and 24 h (RS4;11-BCL-2 D103E, RS4;11-BCL-2 D103Y), respectively. Compounds were serially diluted and added to the plates with the final concentrations of 10000, 3333.3, 1111.1, 370.4, 123.5, 41.2, 13.7, 4.6 and 1.5 nM. Plates were incubated at 37° C., with 5% CO2 for 120 h (RS4; 11-BCL-2 G101V, RS4; 11-BCL-2 F104L) and 72 h (RS4;11-BCL-2 D103E, RS4;11-BCL-2 D103Y), respectively. 20 μl MTS was added into each well and the plates were incubated at 37° C., with 5% CO2 exactly for 2 h. The absorbance was measured by a microplate reader at 490 nm. IC50 values were calculated using GraphPad Prism 8.0 software.

RS4;11-BCL-2 G101V cells = test: Cell proliferation assay (MTS), RS4;11-BCL-2 G101V engineered cells; type: cell-based; conditions: Homo sapiens, 120 h, read-out: RS4, 11 BCL2-G101V IC50
In short: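 Proliferation IC50 in RS4;11 lines engineered with BCL-2 mutations, measured by MTS at 490 nm after 72 h (D103E, D103Y) or 120 h (G101V, F104L) compound treatment at 37 °C.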

Row | SMILES | IC50 (RS4;11-BCL-2 F104L cells) | IC50 (RS4;11-BCL-2 G101V cells)
1 | COc1cc(CN2CCN(C3CC4(CCN(c5ccc(C(=O)NS(=O)(=O)c6cnc(NC[C@H]7CC[C@](C)(O)CC7)c([N+](=O)[O-])c6)c(Oc6cc7c(F)c[nH]c7nc6OC)c5)CC4)C3)[C@H](c3ccccc3C(C)C)C2)cc(C)n1 [Example 55, 2-((3-fluoro-6-methoxy-1H-pyrrolo[2,3-b]pyridin-5-yl)oxy)-N-((6-((((1r,4r)-4-hydroxy-4-methylcyclohexyl)methyl)amino)-5-nitropyridin-3-yl)sulfonyl)-4-(2-((R)-2-(2-isopropylphenyl)-4-((2-methoxy-6-methylpyridin-4-yl)methyl)piperazin-1-yl)-7-azaspiro[3.5]nonan-7-yl)benzamide] | 1 nM | 1 nM
2 | COc1cc(CN2CCN(C3CC4(CCN(c5ccc(C(=O)NS(=O)(=O)c6cnc(NC[C@H]7CC[C@](C)(O)CC7)c([N+](=O)[O-])c6)c(Oc6cc7c(F)c[nH]c7nc6OC)c5)CC4)C3)[C@H](c3ccccc3C(C)C)C2)cc(C#N)n1 [Example 56, 4-(2-((R)-4-((2-cyano-6-methoxypyridin-4-yl)methyl)-2-(2-isopropylphenyl)piperazin-1-yl)-7-azaspiro[3.5]nonan-7-yl)-2-((3-fluoro-6-methoxy-1H-pyrrolo[2,3-b]pyridin-5-yl)oxy)-N-((6-((((1r,4r)-4-hydroxy-4-methylcyclohexyl)methyl)amino)-5-nitropyridin-3-yl)sulfonyl)benzamide] | 3 nM | 2 nM
3 | COc1cc(CN2CCN(C3CC4(CCN(c5ccc(C(=O)NS(=O)(=O)c6cnc(NC[C@H]7CC[C@](C)(O)CC7)c([N+](=O)[O-])c6)c(Oc6cc7c(F)c[nH]c7nc6OC)c5)CC4)C3)[C@H](c3ccccc3C(C)C)C2)cc(N)n1 [Example 57, 4-(2-((R)-4-((2-amino-6-methoxypyridin-4-yl)methyl)-2-(2-isopropylphenyl)piperazin-1-yl)-7-azaspiro[3.5]nonan-7-yl)-2-((3-fluoro-6-methoxy-1H-pyrrolo[2,3-b]pyridin-5-yl)oxy)-N-((6-((((1r,4r)-4-hydroxy-4-methylcyclohexyl)methyl)amino)-5-nitropyridin-3-yl)sulfonyl)benzamide] | 1 nM | 1 nM
4 | CCOc1cc(CN2CCN(C3CC4(CCN(c5ccc(C(=O)NS(=O)(=O)c6cnc(NC[C@H]7CC[C@](C)(O)CC7)c([N+](=O)[O-])c6)c(Oc6cc7c(F)c[nH]c7nc6OC)c5)CC4)C3)[C@H](c3ccccc3C(C)C)C2)ccn1 [Example 65, 4-(2-((R)-4-((2-ethoxypyridin-4-yl)methyl)-2-(2-isopropylphenyl)piperazin-1-yl)-7-azaspiro[3.5]nonan-7-yl)-2-((3-fluoro-6-methoxy-1H-pyrrolo[2,3-b]pyridin-5-yl)oxy)-N-((6-((((1r,4r)-4-hydroxy-4-methylcyclohexyl)methyl)amino)-5-nitropyridin-3-yl)sulfonyl)benzamide] | 1 nM | 1 nM
5 | COc1ccc(CN2CCN(C3CC4(CCN(c5ccc(C(=O)NS(=O)(=O)c6cnc(NC[C@H]7CC[C@](C)(O)CC7)c([N+](=O)[O-])c6)c(Oc6cnc7[nH]ccc7c6)c5)CC4)C3)[C@H](c3ccccc3C(C)C)C2)c2cc(C)oc12 [Example 66, 2-((1H-pyrrolo[2,3-b]pyridin-5-yl)oxy)-N-((6-((((1r,4r)-4-hydroxy-4-methylcyclohexyl)methyl)amino)-5-nitropyridin-3-yl)sulfonyl)-4-(2-((R)-2-(2-isopropylphenyl)-4-((7-methoxy-2-methylbenzofuran-4-yl)methyl)piperazin-1-yl)-7-azaspiro[3.5]nonan-7-yl)benzamide] | 1 nM | 1 nM
6 | CCOc1nc2[nH]cc(F)c2cc1Oc1cc(N2CCC3(CC2)CC(N2CCC[C@H]2c2ccccc2C(C)C)C3)ccc1C(=O)NS(=O)(=O)c1cnc(NC[C@H]2CC[C@](C)(O)CC2)c([N+](=O)[O-])c1 [Example 90, 2-((6-ethoxy-3-fluoro-1H-pyrrolo[2,3-b]pyridin-5-yl)oxy)-N-((6-((((1r,4r)-4-hydroxy-4-methylcyclohexyl)methyl)amino)-5-nitropyridin-3-yl)sulfonyl)-4-(2-((S)-2-(2-isopropylphenyl)pyrrolidin-1-yl)-7-azaspiro[3.5]nonan-7-yl)benzamide] | 1 nM | 

Next, values leading:

Row | IC50 (RS4;11-BCL-2 F104L cells) | IC50 (RS4;11-BCL-2 G101V cells) | SMILES
7 | 3 nM |  | CCOc1nc2[nH]cc(F)c2cc1Oc1cc(N2CCC3(CC2)CN(C2CCN(Cc4ccc(OC)cc4)CC2c2ccccc2C(C)C)C3)ccc1C(=O)NS(=O)(=O)c1cnc(NC[C@H]2CC[C@](C)(O)CC2)c([N+](=O)[O-])c1 (stereo partly drawn) [Example 20, 2-((6-ethoxy-3-fluoro-1H-pyrrolo[2,3-b]pyridin-5-yl)oxy)-N-((6-((((1r,4r)-4-hydroxy-4-methylcyclohexyl)methyl)amino)-5-nitropyridin-3-yl)sulfonyl)-4-(2-(3-(2-isopropylphenyl)-1-(4-methoxybenzyl)piperidin-4-yl)-2,7-diazaspiro[3.5]nonan-7-yl)benzamide]
8 | 1 nM |  | COc1ccc(CN2CCN(C3CC4(CCN(c5ccc(C(=O)NS(=O)(=O)c6cnc(NC[C@H]7CC[C@](C)(O)CC7)c([N+](=O)[O-])c6)c(Oc6cnc7[nH]ccc7c6)c5)CC4)C3)[C@H](c3ccccc3C(C)C)C2)cc1 [Example 61, 2-((1H-pyrrolo[2,3-b]pyridin-5-yl)oxy)-N-((6-((((1r,4r)-4-hydroxy-4-methylcyclohexyl)methyl)amino)-5-nitropyridin-3-yl)sulfonyl)-4-(2-((R)-2-(2-isopropylphenyl)-4-(4-methoxybenzyl)piperazin-1-yl)-7-azaspiro[3.5]nonan-7-yl)benzamide]
9 | 1 nM | 1 nM | COc1cc(CN2CCN(C3CC4(CCN(c5ccc(C(=O)NS(=O)(=O)c6cnc(NC[C@H]7CC[C@](C)(O)CC7)c([N+](=O)[O-])c6)c(Oc6cc7c(F)c[nH]c7nc6OC)c5)CC4)C3)[C@H](c3ccccc3C(C)C)C2)cc(SC)n1 [Example 63, 2-((3-fluoro-6-methoxy-1H-pyrrolo[2,3-b]pyridin-5-yl)oxy)-N-((6-((((1r,4r)-4-hydroxy-4-methylcyclohexyl)methyl)amino)-5-nitropyridin-3-yl)sulfonyl)-4-(2-((R)-2-(2-isopropylphenyl)-4-((2-methoxy-6-(methylthio)pyridin-4-yl)methyl)piperazin-1-yl)-7-azaspiro[3.5]nonan-7-yl)benzamide]
10 | 1 nM | 1 nM | COc1nc2[nH]cc(F)c2cc1Oc1cc(N2CCC3(CC2)CC(N2CCN(Cc4ccnc(OC(F)F)c4)C[C@H]2c2ccccc2C(C)C)C3)ccc1C(=O)NS(=O)(=O)c1cnc(NC[C@H]2CC[C@](C)(O)CC2)c([N+](=O)[O-])c1 [Example 67, 4-(2-((R)-4-((2-(difluoromethoxy)pyridin-4-yl)methyl)-2-(2-isopropylphenyl)piperazin-1-yl)-7-azaspiro[3.5]nonan-7-yl)-2-((3-fluoro-6-methoxy-1H-pyrrolo[2,3-b]pyridin-5-yl)oxy)-N-((6-((((1r,4r)-4-hydroxy-4-methylcyclohexyl)methyl)amino)-5-nitropyridin-3-yl)sulfonyl)benzamide]
11 | 1 nM |  | CCOc1nc2[nH]cc(F)c2cc1Oc1cc(N2CCC3(CC2)CC(N2CCOC[C@H]2c2ccccc2C(C)C)C3)ccc1C(=O)NS(=O)(=O)c1cnc(NC[C@H]2CC[C@](C)(O)CC2)c([N+](=O)[O-])c1 [Example 88, 2-((6-ethoxy-3-fluoro-1H-pyrrolo[2,3-b]pyridin-5-yl)oxy)-N-((6-((((1r,4r)-4-hydroxy-4-methylcyclohexyl)methyl)amino)-5-nitropyridin-3-yl)sulfonyl)-4-(2-((R)-3-(2-isopropylphenyl)morpholino)-7-azaspiro[3.5]nonan-7-yl)benzamide]
